Laboratory results: patent US5728815A, “Bone and prostate-derived protein factors affecting prostate cancer growth, differentiation, and metastasis” (priority 1994, dated 1998)

Legend:
[1] = test system: PSA mRNA in parental LNCaP cells; assay: PSA gene expression, Northern analysis of PSA mRNA; type: cell-based, human; details: for Relative PSA mRNA level: 48 h, control defined as 1.0; for steady-state levels of PSA mRNA: parental LNCaP cells, result in words
Experimental: FIG. 6A. The effect of PSA gene expression in parental LNCaP cells treated with a variety of growth factors. The parental LNCaP cells were incubated with agents as indicated (control cells were incubated with T medium containing 2% TCM). Forty-eight hours after treatment, total cellular RNA was prepared and 20 μg of total cellular RNA was subjected to Northern analysis. Relative PSA mRNA levels (in parenthesis) were determined by densitometrical quantification, and the control is defined as 1.0; (A) TGF-α 100 (0.98); TGF-α 10 (1.01); TGF-α 1 (1.15); bFGF 100 (1.22); bFGF 10 (1.04); bFGF 1 (0.97); TGF-β 0.01 (0.72); TGF-β 0.1 (0.84); TGF-β 1 (0.53); NGF 1 (1.13); NGF 100 (1.08),
FIG. 6B. The effect of PSA gene expression in parental LNCaP cells treated with a neuropeptide and a variety of α1 and β2-adrenergic agonists. I, bombesin 100 (0.62); bombesin 10 (0.89); II. isoproterenol 100 (0.51); isoproterenol 10 (1.11); isoproterenol 1 (1.07); III. dibutyryl cAMP 0.01 (1.09); dibutyryl cAMP 0.1 (1.11); dibutyryl cAMP 1.0 (1.23); IV. phenylephrine 1 (1.10); phenylephrine 10 (1.08); phenylephrine 100 (1.14).
Total cellular RNA was prepared from frozen tissues by the 4M guanidinium thiocyanate extraction method (Chomcjymski & Sacchi, 1987). Typical yields of total cellular RNA were about 300 μg/200 mg tissue as quantified spectrophotometrically using 40 μg RNA/A260 unit. RNA was denatured in 50% formamide/18% formaldehyde at 55° C. and fractionated by electrophoresis in a 0.9% denaturing formaldehyde agarose gel. Samples were transferred onto a Zetaprobe membrane (Bio-Rad) by capillary method, and the membrane was then baked for 2 hours at 80° C. The membrane was then prehybridized in the presence of 1M NaCl, 10% dextran sulfate, 1% SDS, and 200 μg/ml salmon sperm DNA for at least 2 hours at 65° C. Hybridization was carried out at 65° C. overnight with a random-primer-labeled probe as indicated. The PSA cDNA, and sequence specific hGK-1 and PSA oligonucleotide probes were obtained from Dr. D. Tindall (Mayo Clinic, Rochester, Minn.) (Lundwall & Lilja, 1987). Finally, the membrane was washed under high stringency conditions (0.5×SSC, 1% SDS at 65° C.). Autoradiograms were prepared by exposing Kodak X-Omat AR film to the membrane at -80° C. with intensifying screens.

prostate tumor cell = details: both in vitro and in vivo; cited from earlier work
[2] = prevents clinical use in human treatment; cited from earlier work

## CC(C)NCC(O)c1ccc(O)c(O)c1 (centres unmarked) [isoproterenol]
[1]; concentration 1 (unit not given)
  Relative PSA mRNA level: 1.07
[1]; concentration 10 (unit not given)
  Relative PSA mRNA level: 1.11
[1]; concentration 100 (unit not given)
  Relative PSA mRNA level: 0.51
[1]
  steady-state levels of PSA mRNA: no apparent increases

## CCCC(=O)Nc1ncnc2c1ncn2[C@@H]1O[C@@H]2COP(=O)(O)O[C@H]2[C@H]1OC(=O)CCC [dibutyryl cAMP]
[1]; concentration 0.01 (unit not given)
  Relative PSA mRNA level: 1.09
[1]; concentration 0.1 (unit not given)
  Relative PSA mRNA level: 1.11
[1]; concentration 1.0 (unit not given)
  Relative PSA mRNA level: 1.23
[1]
  steady-state levels of PSA mRNA: no apparent increases

## CNC[C@H](O)c1cccc(O)c1 [phenylephrine]
[1]
  steady-state levels of PSA mRNA: no apparent increases

## Cc1ccc(C(=O)Nc2ccc(S(=O)(=O)O)c3cc(S(=O)(=O)O)cc(S(=O)(=O)O)c23)cc1NC(=O)c1cccc(NC(=O)Nc2cccc(C(=O)Nc3cc(C(=O)Nc4ccc(S(=O)(=O)O)c5cc(S(=O)(=O)O)cc(S(=O)(=O)O)c45)ccc3C)c2)c1 [suramin]
Prostate tumor cell
  prostate tumor cell growth: inhibit prostate tumor cell growth
[2]
  toxicity in vivo: extreme toxicity
